In the supplement of paper PMC10307832:

Assays:
Assay in all cases: relative viability (nuclei count vs DMSO), 5 days (fraction); higher = more cells survive
VX-11e + Navitoclax = compound: CC1=CN=C(N=C1C2=CNC(=C2)C(=O)N[C@H](CO)C3=CC(=CC=C3)Cl)NC4=C(C=C(C=C4)F)Cl [VX-11e] + CC1(C)CCC(c2ccc(Cl)cc2)=C(CN2CCN(c3ccc(C(=O)NS(=O)(=O)c4ccc(N[C@H](CCN5CCOCC5)CSc5ccccc5)c(S(=O)(=O)C(F)(F)F)c4)cc3)CC2)C1 [Navitoclax] (partner 0.5 µM)
Outline: (§1)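 A single step with final 0.05% Triton X-100, 1% formaldehyde and 1 ug/ml Hoechst fixed the cells and stained nuclei 5 days after treatment. Lung cancer cell lines in 1536-well plates had been treated by pin tool the day after seeding with one drug alone or a fixed anchor-drug dose plus five library-drug doses (not always all listed) in √10 steps, and nuclei were counted on 4× images. Relative viability is the ratio of nuclei in treated wells to nuclei in vehicle wells, taken as the median of duplicate plates.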

VX-11e + Linsitinib = compound: CC1=CN=C(N=C1C2=CNC(=C2)C(=O)N[C@H](CO)C3=CC(=CC=C3)Cl)NC4=C(C=C(C=C4)F)Cl [VX-11e] + C[C@]1(O)C[C@@H](c2nc(-c3ccc4ccc(-c5ccccc5)nc4c3)c3c(N)nccn32)C1 [Linsitinib] (partner 1 µM)
Outline: as §1

VX-11e + Alpelisib = compound: CC1=CN=C(N=C1C2=CNC(=C2)C(=O)N[C@H](CO)C3=CC(=CC=C3)Cl)NC4=C(C=C(C=C4)F)Cl [VX-11e] + Cc1nc(NC(=O)N2CCC[C@H]2C(N)=O)sc1-c1ccnc(C(C)(C)C(F)(F)F)c1 [Alpelisib] (partner 2 µM)
Outline: as §1

VX-11e + Vorinostat = compound: CC1=CN=C(N=C1C2=CNC(=C2)C(=O)N[C@H](CO)C3=CC(=CC=C3)Cl)NC4=C(C=C(C=C4)F)Cl [VX-11e] + O=C(CCCCCCC(=O)Nc1ccccc1)NO [Vorinostat] (partner 1 µM)
Outline: as §1

| Cell Line | relative viability (VX-11e + Navitoclax; first compound 0.04 µM) | relative viability (VX-11e + Navitoclax; first compound 0.1265 µM) | relative viability (VX-11e + Navitoclax; first compound 0.4 µM) | relative viability (VX-11e + Navitoclax; first compound 1.265 µM) | relative viability (VX-11e + Navitoclax; first compound 4 µM) | relative viability (VX-11e + Linsitinib; first compound 0.04 µM) | relative viability (VX-11e + Linsitinib; first compound 0.1265 µM) | relative viability (VX-11e + Linsitinib; first compound 0.4 µM) | relative viability (VX-11e + Linsitinib; first compound 1.265 µM) | relative viability (VX-11e + Linsitinib; first compound 4 µM) | relative viability (VX-11e + Alpelisib; first compound 0.04 µM) | relative viability (VX-11e + Alpelisib; first compound 0.1265 µM) | relative viability (VX-11e + Alpelisib; first compound 0.4 µM) | relative viability (VX-11e + Alpelisib; first compound 1.265 µM) | relative viability (VX-11e + Alpelisib; first compound 4 µM) | relative viability (VX-11e + Vorinostat; first compound 0.04 µM) | relative viability (VX-11e + Vorinostat; first compound 0.1265 µM) | relative viability (VX-11e + Vorinostat; first compound 0.4 µM) | relative viability (VX-11e + Vorinostat; first compound 1.265 µM) | relative viability (VX-11e + Vorinostat; first compound 4 µM) |
| --- | --- | --- | --- | --- | --- | --- | --- | --- | --- | --- | --- | --- | --- | --- | --- | --- | --- | --- | --- | --- |
| NCI-H3122 | 0.969 | 1.02 | 0.989 | 0.995 | 0.597 | 0.971 | 1.01 | 0.974 | 0.929 | 0.58 | 0.652 | 0.753 | 0.566 | 0.672 | 0.329 | 0.85 | 0.885 | 0.684 | 0.987 | 0.589 |
| NCI-H1993 | – | 1.03 | – | 0.804 | 0.612 | – | 0.757 | – | 0.769 | 0.666 | – | 0.673 | – | 0.618 | 0.649 | – | 0.819 | 0.505 | 0.47 | 0.623 |
| LK-2 | 0.893 | 0.732 | 0.781 | 0.738 | 0.86 | 0.774 | 0.672 | 0.555 | 0.205 | 0.313 | – | 1.06 | 1.21 | – | 0.543 | 0.223 | 0.323 | 0.268 | 0.297 | 0.227 |
| HCC-366 | 1.22 | 1.02 | – | 0.993 | 0.708 | 0.774 | 0.602 | – | 0.348 | 0.0744 | 0.446 | 0.431 | – | 0.239 | 0.0901 | 0.314 | 0.332 | – | 0.105 | 0.199 |
| NCI-H441 | 0.668 | 0.469 | – | 0.905 | 0.556 | 0.542 | 0.584 | – | 0.657 | 0.419 | 0.804 | 0.709 | – | 0.977 | 0.633 | 0.835 | 0.786 | – | 0.753 | 0.569 |
| COR-L 105 | 0.591 | 0.759 | 0.55 | 0.692 | 0.284 | 1.04 | 0.946 | 0.568 | 0.571 | 0.267 | 0.929 | 0.973 | 0.799 | 0.329 | 0.357 | 0.756 | 0.857 | 0.731 | 0.741 | 0.418 |
| NCI-H2228 | 0.902 | 0.73 | 1.08 | 0.477 | 0.162 | 0.577 | 0.692 | 0.489 | 0.308 | 0.214 | 0.631 | 0.922 | 0.715 | 0.548 | 0.232 | 0.646 | 0.66 | 0.617 | 0.58 | 0.399 |
| LC-2-ad | 0.463 | 0.375 | 0.362 | 0.372 | 0.248 | 0.831 | 0.852 | 0.787 | 0.572 | 0.508 | 0.913 | 0.867 | 0.778 | 0.714 | 0.585 | 0.84 | 0.695 | 0.733 | 0.456 | 0.376 |
| HARA | 1.16 | 1.1 | 1.13 | 1.13 | 0.968 | 1.01 | 0.9 | 1.02 | 1.04 | 0.417 | 0.772 | 0.776 | 0.787 | 0.865 | 0.338 | 0.618 | 0.455 | 0.535 | 0.392 | 0.257 |
